Source: patent US5889028A, “Colonic delivery of nicotine to treat inflammatory bowel disease” (priority 1997, dated 1999)
Entries after “also recorded” stand apart in the source; their conditions may differ.

Columns and labels:
[1] = systemic cotinine; cited from earlier work
[2] = nicotine base; cited from earlier work
[3] = Benowitz et al., cited from earlier work
[4] = gum and patch papers; cited from earlier work
[5] = in vivo
[6] = Example 1: side effects (questionnaire) versus plasma nicotine concentration; type: in vivo, human
Procedure: Intraindividual side effects occurred during each study, as determined by a questionnaire filled out every 30 minutes, closely correlated with plasma nicotine concentrations. However, the threshold above which symptoms appeared varied from individual to individual with the nicotine concentration at which side effects first appeared ranging from 2.4 ng/mL to 9.9 ng/mL (although some subjects had nicotine concentrations of >11 ng/mL without symptoms).

clinical = details: in vivo
[7] = cited from earlier work
[8] = Example 1: nicotine pharmacokinetics after IV, oral and rectal enema administration in healthy volunteers
Procedure: Intravenous nicotine was prepared using a nicotine base, supplied as the tartrate salt (Fisher Scientific/Eastman Kodak Company, Rochester, N.Y.). Solutions for injection were made up by combining 1.5 mg nicotine base (4.44 mg tartrate salt) in 100 ml of 0.9% sterile normal saline to form a 15 mcg/mL solution. The intravenous solution was filtered through a 0.22 micron filter into a sterile container and under sterile conditions. The solution was then cultured for organisms, assayed for endotoxin, and chemically analyzed prior to infusion to assure stable nicotine concentration. These samples were then be stored in sealed vials until the time of administration.
Thirty paid human volunteers were admitted to the pharmacokinetic study after giving informed consent to a protocol approved by the institutional review board at the Mayo Clinic, Rochester, Minn. The subjects ranged in age from 21-56 and their body weights ranged from 45 to 153 Kg. […]
Each subject underwent 2 investigations (IV and non-IV) of 8 hours duration at least 1 week apart. […] Plasma concentrations of nicotine were determined by gas chromatography/mass spectrometry as described by Baskin et al. (Clin. Chem., 31:76-80 (1991)).
For this study, the maximum plasma nicotine concentration (Cmax) and the time to reach Cmax (Tmax) were defined as the highest measured plasma concentrations and the time of the sample, respectively.

CN1C(=O)CC[C@H]1c1cccnc1 [cotinine]
activity relative to nicotine [1]: less active metabolite than nicotine

CN1CCCC1c1cccnc1 (stereo not drawn) [nicotine]
absorption through mucous membranes and skin [2]: readily absorbed through mucous membranes and intact skin
mean bioavailability for the oral dose [3]: 44 (9%)
CLb ([3]; IV, heavy smokers): 66 (8 L/hr)
T1/2 ([3]; IV, heavy smokers): 203 (61 min.)
Vdss ([3]; IV, heavy smokers): 3.0 (0.7 L/Kg)
general side effects of nicotine administration [4]: nausea, vomiting, headaches, insomnia, somnolence, diaphoresis, pre-syncope and tremor
combination with 5-ASA, sulphasalazine, corticosteroids or budesonide [5]: appears to show a synergistic effect
efficacy compared with high dosage transdermal patch [5]: at least as efficacious as high dosage transdermal patch
remission (clinical response) [5]: up to 70%
nicotine concentration without symptoms ([6]; some subjects): > 11 ng/mL
side effects observed ([6]; when side effects occurred, variable frequency): nausea, lightheadedness, and diaphoresis
Fa (clinical): ~20%
effect on mucus ([7]; colonic mucus synthesis): appears to increase mucus synthesis to levels observed in healthy subjects
effect on rectal blood flow ([7]; patients with ulcerative colitis): can reduce rectal blood flow to the normal range
effect on mucosal production of eicosanoids ([7]; prostaglandin E, 6-keto-PGF1a, leukotrienes): appears to reduce mucosal production of eicosanoids
mucus thickness ([7]; rabbits, high doses, versus controls): greater mucus thickness as compared to controls
bioavailability / tolerability in words [8]: low bioavailability and was well tolerated; also recorded: low or negligible bioavailability and was well tolerated
